What is called IC50 is the concentration that inhibits the measured activity by half.

In one assay the target is T1, human orexin-2 receptor (Homo sapiens, UniProt O43614).
T1 construct: expressed in transfected cells; host or cells: CHO (Chinese hamster ovary) cells, G418 selection
T1 sequence (O43614 1-444): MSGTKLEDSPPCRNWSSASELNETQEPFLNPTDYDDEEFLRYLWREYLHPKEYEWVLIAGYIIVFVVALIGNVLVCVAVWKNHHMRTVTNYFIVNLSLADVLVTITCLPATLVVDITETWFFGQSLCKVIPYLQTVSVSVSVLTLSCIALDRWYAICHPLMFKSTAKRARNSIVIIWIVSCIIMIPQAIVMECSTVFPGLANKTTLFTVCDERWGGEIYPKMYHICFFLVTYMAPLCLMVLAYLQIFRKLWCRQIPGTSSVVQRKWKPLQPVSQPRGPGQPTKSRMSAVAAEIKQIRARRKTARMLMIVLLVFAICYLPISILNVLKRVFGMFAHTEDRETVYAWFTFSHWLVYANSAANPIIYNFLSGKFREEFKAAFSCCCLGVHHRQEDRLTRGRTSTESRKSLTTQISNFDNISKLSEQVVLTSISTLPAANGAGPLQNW
The experiment in a line: Intracellular calcium measurements (FLIPR), orexin receptor antagonistic activity, OX2. The conditions noted are these: CHO cells expressing the human orexin-2 receptor, 10 nM orexin-A as agonist. Type of assay: cell-based. The procedure:
(§1) The orexin receptor antagonistic activity of the compounds of formula (I) is determined in accordance with the following experimental method.
(§2) Intracellular Calcium Measurements:
(§3) Chinese hamster ovary (CHO) cells expressing the human orexin-1 receptor and the human orexin-2 receptor, respectively, are grown in culture medium (Ham F-12 with L-Glutamine) containing 300 μg/ml G418, 100 U/ml penicillin, 100 μg/ml streptomycin and 10% inactivated fetal calf serum (FCS). The cells are seeded at 80′000 cells/well into 96-well black clear bottom sterile plates (Costar) which have been precoated with 1% gelatine in Hanks' Balanced Salt Solution (HBSS). All reagents are from Gibco BRL. The seeded plates are incubated overnight at 37° C. in 5% CO2.
(§4) Human orexin-A as an agonist is prepared as 1 mM stock solution in MeOH:water (1:1), diluted in HBSS containing 0.1% bovine serum albumin (BSA) and 2 mM HEPES for use in the assay at a final concentration of 10 nM.
(§5) Antagonists are prepared as 10 mM stock solution in DMSO, then diluted in 96-well plates, first in DMSO, then in HBSS containing 0.1% bovine serum albumin (BSA) and 2 mM HEPES.
(§6) On the day of the assay, 100 μl of loading medium (HBSS containing 1% FCS, 2 mM HEPES, 5 mM probenecid (Sigma) and 3 μM of the fluorescent calcium indicator fluo-3 AM (1 mM stock solution in DMSO with 10% pluronic acid) (Molecular Probes) is added to each well.
(§7) The 96-well plates are incubated for 60 min at 37° C. in 5% CO2. The loading solution is then aspirated and cells are washed 3 times with 200 μl HBSS containing 2.5 mM probenecid, 0.1% BSA, 2 mM HEPES. 100 μl of that same buffer is left in each well.
(§8) Within the Fluorescent Imaging Plate Reader (FLIPR, Molecular Devices), antagonists are added to the plate in a volume of 50 μl, incubated for 20 min and finally 100 μl of agonist is added. Fluorescence is measured for each well at 1 second intervals, and the height of each fluorescence peak is compared to the height of the fluorescence peak induced by 10 nM orexin-A with buffer in place of antagonist. For each antagonist, IC50 value (the concentration of compound needed to inhibit 50% of the agonistic response) is determined.

For the next assay, the target named is T2, human orexin-1 receptor (Homo sapiens, UniProt O43613).
T2 construct: expressed in transfected cells; host or cells: CHO (Chinese hamster ovary) cells, G418 selection
T2 sequence (O43613 1-425): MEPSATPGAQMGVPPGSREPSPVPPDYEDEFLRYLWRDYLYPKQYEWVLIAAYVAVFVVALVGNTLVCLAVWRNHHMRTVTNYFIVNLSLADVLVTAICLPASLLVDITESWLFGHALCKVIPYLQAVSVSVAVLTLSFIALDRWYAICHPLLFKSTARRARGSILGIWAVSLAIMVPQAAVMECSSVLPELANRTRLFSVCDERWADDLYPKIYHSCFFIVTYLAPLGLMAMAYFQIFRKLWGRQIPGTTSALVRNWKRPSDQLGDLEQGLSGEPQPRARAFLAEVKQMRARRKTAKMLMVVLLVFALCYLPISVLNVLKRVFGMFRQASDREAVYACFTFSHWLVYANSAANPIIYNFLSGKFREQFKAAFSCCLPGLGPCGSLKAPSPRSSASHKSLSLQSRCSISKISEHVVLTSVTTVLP
In words: Intracellular calcium measurements (FLIPR), orexin receptor antagonistic activity, OX1. Type of assay: cell-based. The conditions noted are these: CHO cells expressing the human orexin-1 receptor, 10 nM orexin-A as agonist. The procedure:
as §1, §2, §3, §4, §5, §6, §7, §8
(Calcium assays in cells follow changes in intracellular calcium, usually with a dye or a luminescent sensor.)

Take `O=C(NC[C@@H]1C[C@@H]2C[C@@H]2N1C(=O)c1nc(C2CC2)sc1-c1ccccc1F)c1cccc2c1CCO2` [Example 208, 2,3-Dihydro-benzofuran-4-carboxylic acid {(1S,3S,5S)-2-[2-cyclopropyl-5-(2-fluoro-phenyl)-thiazole-4-carbonyl]-2-aza-bicyclo[3.1.0]hex-3-ylmethyl}-amide]: the IC50 at human orexin-2 receptor was found to be 34 nM; at human orexin-1 receptor, 58 nM.
`O=C(NC[C@@H]1C[C@@H]2C[C@@H]2N1C(=O)c1ncsc1-c1cccc(Cl)c1)c1cccc2c1CCO2` [Example 212, 2,3-Dihydro-benzofuran-4-carboxylic acid {(1S,3S,5S)-2-[5-(3-chloro-phenyl)-thiazole-4-carbonyl]-2-aza-bicyclo[3.1.0]hex-3-ylmethyl}-amide]: the results for the IC50 at human orexin-2 receptor and at human orexin-1 receptor were 102 nM and 109 nM, respectively.
On the same counts, the results for `Cc1nc(C(=O)N2[C@H](CNC(=O)c3cccc4cccnc34)C[C@@H]3C[C@@H]32)c(-c2ccccc2)s1` [Example 230, Quinoline-8-carboxylic acid [(1S,3S,5S)-2-(2-methyl-5-phenyl-thiazole-4-carbonyl)-2-aza-bicyclo[3.1.0]hex-3-ylmethyl]-amide] are 100 nM and 13 nM.
Turning to `O=C(NC[C@@H]1C[C@@H]2C[C@@H]2N1C(=O)c1ncsc1-c1cccc(Cl)c1)c1cccc2cccnc12` [Example 235, Quinoline-8-carboxylic acid {(1S,3S,5S)-2-[5-(3-chloro-phenyl)-thiazole-4-carbonyl]-2-aza-bicyclo[3.1.0]hex-3-ylmethyl}-amide], the half-inhibitory concentration (IC50) at human orexin-2 receptor came to 452 nM; at human orexin-1 receptor, 88 nM.
On the same counts, the results for `Cc1nc2sccn2c1C(=O)NC[C@@H]1C[C@@H]2C[C@@H]2N1C(=O)c1nc(N(C)C)sc1-c1ccccc1` [Example 246, 6-Methyl-imidazo[2,1-b]thiazole-5-carboxylic acid [(1S,3S,5S)-2-(2-dimethylamino-5-phenyl-thiazole-4-carbonyl)-2-aza-bicyclo[3.1.0]hex-3-ylmethyl]-amide] are 44 nM and 20 nM.
For the compound `Cc1cc(C)cc(-c2sc(C)nc2C(=O)N2[C@H](CNc3ncc(Br)cn3)C[C@@H]3C[C@@H]32)c1` [Example 255, {(1S,3S,5S)-3-[(5-Bromo-pyrimidin-2-ylamino)-methyl]-2-aza-bicyclo[3.1.0]hex-2-yl}-[5-(3,5-dimethyl-phenyl)-2-methyl-thiazol-4-yl]-methanone], the figures for the IC50 at human orexin-2 receptor and on human orexin-1 receptor were 291 nM and 37 nM, respectively.
As to `Cc1nc(C(=O)N2[C@H](CNc3ncc(Br)cn3)C[C@@H]3C[C@@H]32)c(-c2ccc(F)c(F)c2)s1` [Example 259, {(1S,3S,5S)-3-[(5-Bromo-pyrimidin-2-ylamino)-methyl]-2-aza-bicyclo[3.1.0]hex-2-yl}-[5-(3,4-difluoro-phenyl)-2-methyl-thiazol-4-yl]-methanone], the IC50 stood at 145 nM on human orexin-2 receptor and 62 nM on human orexin-1 receptor.
On to `O=C(c1nc(C2CC2)sc1-c1ccccc1)N1[C@H](CNc2ncc(Br)cn2)C[C@@H]2C[C@@H]21` [Example 265, {(1S,3S,5S)-3-[(5-Bromo-pyrimidin-2-ylamino)-methyl]-2-aza-bicyclo[3.1.0]hex-2-yl}-(2-cyclopropyl-5-phenyl-thiazol-4-yl)-methanone], for which the results for the IC50 at human orexin-2 receptor and on human orexin-1 receptor were 68 nM and 131 nM, respectively.
As to `Cc1cccc(-c2sc(C)nc2C(=O)N2[C@H](CNc3nccc(C(F)(F)F)n3)C[C@@H]3C[C@@H]32)c1` [Example 274, (2-Methyl-5-m-tolyl-thiazol-4-yl)-{(1S,3S,5S)-3-[(4-trifluoromethyl-pyrimidin-2-ylamino)-methyl]-2-aza-bicyclo[3.1.0]hex-2-yl}-methanone], the IC50 on human orexin-2 receptor came out at 98 nM; on human orexin-1 receptor, 110 nM.
Consider `CCc1cnc(NC[C@@H]2C[C@@H]3C[C@@H]3N2C(=O)c2nc(C)sc2-c2cccc(C)c2)nc1` [Example 277, {(1S,3S,5S)-3-[(5-Ethyl-pyrimidin-2-ylamino)-methyl]-2-aza-bicyclo[3.1.0]hex-2-yl}-(2-methyl-5-m-tolyl-thiazol-4-yl)-methanone], for which the IC50 is 154 nM at human orexin-2 receptor and 42 nM at human orexin-1 receptor.

For the origin of these results see US8288435B2, “2-aza-bicyclo[3.1.0]hexane derivatives as orexin receptor antagonists” (Actelion Pharmaceuticals Ltd., priority 2006, dated 2012).
